Assay results: patent publication US8735417B2, “Aminopyrimidines as Syk inhibitors” (Merck Sharp & Dohme Corp., priority 2009, dated 2014)

Molecular target: T1, recombinant human GST-SYK (Homo sapiens, UniProt P43405)
T1 construct: purchased Carna Biosciences 08-176
Assay: Homogeneous Time-Resolved Fluorescence (HTRF) assay for the recombinant human SYK enzyme
Assay type: biochemical
Details: recombinant human GST-SYK 5 pM, ATP 25 μM, 10-dose titration; read-out: rhSYK Activity (IC50)
Method: Homogeneous Time-Resolved Fluorescence (HTRF) Assay for the Recombinant Human SYK Enzyme:
A recombinant GST-hSYK fusion protein was used to measure potency of compounds to inhibit human SYK activity. The recombinant human GST-SYK (Carna Biosciences #08-176) (5 pM final concentration) was incubated with various concentrations of the inhibitor diluted in DMSO (0.1% final concentration) for 10 minutes at room temperature in 15 mM Tris-HCl (pH 7.5), 0.01% tween 20, 2 mM DTT in 384 well plate format. To initiate the reaction the biotinylated substrate peptide (250 nM final concentration) that contains the phosphorylation site for SYK was added with magnesium (5 mM final concentration) and ATP (25 μM final concentration). Final volume of the reaction was 10 μL. Phosphorylation of the peptide was allowed to proceed for 45′ at room temperature. To quench the reaction and detect the phosphorylated product, 2 nM of a Europium-atiti-phosphotyrosine antibody (Perkin Elmer #AD0161) and 70 nM SA-APC (Perkin-Elmer #CR130-100) were added together in 15 mM Tris pH 7.5, 40 mM EDTA, 0.01% tween 20. Final volume of the quenching solution was 10 μL. The resulting HTRF signal was measured after 30 minutes on a EnVision (Perkin-Elmer) reader using a time-resolved fluorescence protocol.

Row | SMILES | IC50
1 | Cc1cc(Nc2nccc(C(F)(F)F)n2)cc(-c2cnc(NCc3ccncc3)s2)c1 [Example 86] | ≤ 100 nM
2 | Cc1cc(Nc2nccc(C(F)(F)F)n2)cc(-c2cnc(NCc3cncn3C)s2)c1 [Example 87] | ≤ 100 nM
3 | Cc1cc(Nc2nccc(C(F)(F)F)n2)cc(-c2cnc(NCc3cc(C)n(C)n3)s2)c1 [Example 88] | ≤ 100 nM
4 | Cc1cc(Nc2nccc(C(F)(F)F)n2)cc(-c2cnc(NCc3cn4ccccc4n3)s2)c1 [Example 89] | 100 to 1000 nM
5 | Cc1cc(Nc2nccc(C(F)(F)F)n2)cc(-c2cnc(N(C)CCc3c[nH]c4ccccc34)s2)c1 [Example 90] | 100 to 1000 nM
6 | Cc1cc(Nc2nccc(C(F)(F)F)n2)cc(-c2cnc(NCCc3c[nH]cn3)s2)c1 [Example 93] | ≤ 100 nM
7 | Cc1cc(Nc2nccc(C(F)(F)F)n2)cc(-c2cnc(NCc3cn(C)cn3)s2)c1 [Example 94] | ≤ 100 nM
8 | Cc1cc(Nc2nccc(C(F)(F)F)n2)cc(-c2cnc(NCC(O)C(F)F)s2)c1 (centres unmarked) [Example 95] | ≤ 100 nM
9 | Cc1cc(Nc2nccc(C(F)(F)F)n2)cc(-c2cnc(NCCc3cnccn3)s2)c1 [Example 96] | ≤ 100 nM
10 | Cc1cc(Nc2nccc(C(F)(F)F)n2)cc(-c2cnc(NCc3cc(C)on3)s2)c1 [Example 97] | ≤ 100 nM
11 | Cc1cc(Nc2nccc(C(F)(F)F)n2)cc(-c2cnc(NC[C@H]3CC[C@@H](N)CC3)s2)c1 [Example 98] | ≤ 100 nM
12 | Cc1cc(Nc2nccc(C(F)(F)F)n2)cc(-c2cnc(NC(C)c3cccnc3)s2)c1 (centres unmarked) [Example 99] | ≤ 100 nM
13 | Cc1cc(Nc2nccc(C(F)(F)F)n2)cc(-c2cnc(NCc3cnn(C)c3)s2)c1 [Example 100] | ≤ 100 nM
14 | Cc1cc(Nc2nccc(C(F)(F)F)n2)cc(-c2cnc(N(C)Cc3cnn(C)c3)s2)c1 [Example 101] | ≤ 100 nM
15 | Cc1cc(Nc2nccc(C(F)(F)F)n2)cc(-c2cnc(N(C)Cc3nc4ccccc4o3)s2)c1 [Example 102] | 100 to 1000 nM
16 | Cc1cc(Nc2nccc(C(F)(F)F)n2)cc(-c2cnc(NCc3cnsc3)s2)c1 [Example 104] | ≤ 100 nM
17 | Cc1cc(Nc2nccc(C(F)(F)F)n2)cc(-c2cnc(NCc3cnsn3)s2)c1 [Example 105] | ≤ 100 nM
18 | Cc1cc(Nc2nccc(C(F)(F)F)n2)cc(-c2cnc(NCCc3ncn[nH]3)s2)c1 [Example 106] | ≤ 100 nM
19 | Cc1cc(Nc2nccc(C(F)(F)F)n2)cc(-c2cnc(NCCc3ccco3)s2)c1 [Example 107] | ≤ 100 nM
20 | Cc1cc(Nc2nccc(C(F)(F)F)n2)cc(-c2cnc(NCCc3cccs3)s2)c1 [Example 108] | 100 to 1000 nM
21 | Cc1cc(Nc2nccc(C(F)(F)F)n2)cc(-c2cnc(NCCc3nccs3)s2)c1 [Example 109] | ≤ 100 nM
22 | Cc1cc(Nc2nccc(C(F)(F)F)n2)cc(-c2cnc(NCCc3cscn3)s2)c1 [Example 110] | ≤ 100 nM
23 | Cc1cc(Nc2nccc(C(F)(F)F)n2)cc(-c2cnc(NCCc3c(C)n[nH]c3C)s2)c1 [Example 111] | ≤ 100 nM
24 | Cc1cc(Nc2nccc(C(F)(F)F)n2)cc(-c2cnc(NCCc3c[nH]c4ccccc34)s2)c1 [Example 112] | ≤ 100 nM

Row | SMILES | IC50
25 | Cc1cc(Nc2nccc(C(F)(F)F)n2)cc(-c2cnc(NCCC3(O)CCN(C)CC3)s2)c1 [Example 116] | ≤ 100 nM
26 | Cc1cc(Nc2nccc(C(F)(F)F)n2)cc(-c2cnc(NCC(O)c3ccncc3)s2)c1 (centres unmarked) [Example 117] | 100 to 1000 nM
27 | Cc1cc(Nc2nccc(C(F)(F)F)n2)cc(-c2cnc(NCCc3ccncc3)s2)c1 [Example 118] | ≤ 100 nM
28 | FC(F)(F)c1ccnc(Nc2cccc(-c3cnc(N4CCOCC4)s3)c2)n1 [Example 119] | ≤ 100 nM
29 | FC(F)(F)c1ccnc(Nc2cccc(-c3cnc(N4CCOC(C(F)(F)F)C4)s3)c2)n1 (centres unmarked) [Example 121] | 100 to 1000 nM
30 | Cc1cc(Nc2nccc(C(F)(F)F)n2)cc(-c2cnc(N3CCOCC3)s2)c1 [Example 122] | ≤ 100 nM
31 | O=C1CN(c2ncc(-c3cccc(Nc4nccc(C(F)(F)F)n4)c3)s2)CCN1 [Example 123] | 1000 to 10000 nM
32 | CC1C(=O)NCCN1c1ncc(-c2cccc(Nc3nccc(C(F)(F)F)n3)c2)s1 (centres unmarked) [Example 124] | ≤ 100 nM
33 | O=C(O)c1cccc(N2CCN(c3ncc(-c4cccc(Nc5nccc(C(F)(F)F)n5)c4)s3)CC2)c1 [Example 125] | ≤ 100 nM
34 | C=CCOC(=O)N1CCN(c2ncc(-c3cccc(Nc4nccc(C(F)(F)F)n4)c3)s2)C(CO)C1 (centres unmarked) [Example 126] | 100 to 1000 nM
35 | COCC(=O)N1CCN(c2ncc(-c3cccc(Nc4nccc(C(F)(F)F)n4)c3)s2)CC1 [Example 127] | ≤ 100 nM
36 | Cc1cc(Nc2nccc(C(F)(F)F)n2)cc(-c2cnc(N3CCN(C(=O)c4ccc5cc[nH]c5c4)CC3)s2)c1 [Example 128] | ≤ 100 nM
37 | OC1CCN(c2ncc(-c3cccc(Nc4nccc(C(F)(F)F)n4)c3)s2)CC1 [Example 129] | ≤ 100 nM
38 | OCC1CCN(c2ncc(-c3cccc(Nc4nccc(C(F)(F)F)n4)c3)s2)CC1 [Example 130] | ≤ 100 nM
39 | OC1CCCN(c2ncc(-c3cccc(Nc4nccc(C(F)(F)F)n4)c3)s2)C1 (centres unmarked) [Example 131] | ≤ 100 nM
40 | OCC1CCCCN1c1ncc(-c2cccc(Nc3nccc(C(F)(F)F)n3)c2)s1 (centres unmarked) [Example 132] | ≤ 100 nM
41 | OCC1CCCN(c2ncc(-c3cccc(Nc4nccc(C(F)(F)F)n4)c3)s2)C1 (centres unmarked) [Example 134] | ≤ 100 nM
42 | O=C(COC1CCN(c2ncc(-c3cccc(Nc4nccc(C(F)(F)F)n4)c3)s2)CC1)NC1CC1 [Example 136] | 100 to 1000 nM
43 | FC(F)(F)c1ccnc(Nc2cccc(-c3cnc(N4CCC(n5cc(-c6ccccc6)nn5)CC4)s3)c2)n1 [Example 137] | 100 to 1000 nM
44 | CC(C)(C)OC(=O)NCC1CCN(c2ncc(-c3cccc(Nc4nccc(C(F)(F)F)n4)c3)s2)CC1 [Example 138] | 1000 to 10000 nM
45 | FC1CCN(c2ncc(-c3cccc(Nc4nccc(C(F)(F)F)n4)c3)s2)CC1 [Example 140] | 100 to 1000 nM
46 | OCCC1CCN(c2ncc(-c3cccc(Nc4nccc(C(F)(F)F)n4)c3)s2)CC1 [Example 141] | ≤ 100 nM
47 | OCCC1CCCN(c2ncc(-c3cccc(Nc4nccc(C(F)(F)F)n4)c3)s2)C1 (centres unmarked) [Example 142] | ≤ 100 nM
48 | NC1CCN(c2ncc(-c3cccc(Nc4nccc(C(F)(F)F)n4)c3)s2)CC1 [Example 143] | ≤ 100 nM

Row | SMILES | IC50
49 | Cc1cc(Nc2nccc(C(F)(F)F)n2)cc(-c2cnc(N3CCC(OCC(=O)NC(C)(C)C)CC3)s2)c1 [Example 145] | 1000 to 10000 nM
50 | Cc1cc(Nc2nccc(C(F)(F)F)n2)cc(-c2cnc(N3CCC(c4ccc(S(C)(=O)=O)cc4)CC3)s2)c1 [Example 146] | 1000 to 10000 nM
51 | Cc1cc(Nc2nccc(C(F)(F)F)n2)cc(-c2cnc(N3CCC(CC(N)=O)CC3)s2)c1 [Example 148] | ≤ 100 nM
52 | CC(=O)NCCC1CCN(c2ncc(-c3cc(C)cc(Nc4nccc(C(F)(F)F)n4)c3)s2)CC1 [Example 150] | ≤ 100 nM
53 | Cc1cc(Nc2nccc(C(F)(F)F)n2)cc(-c2cnc(N3CCC4CN(C)CC4C3)s2)c1 (centres unmarked) [Example 153] | ≤ 100 nM
54 | CC1(O)CN(c2ncc(-c3cccc(Nc4nccc(C(F)(F)F)n4)c3)s2)C1 [Example 154] | ≤ 100 nM
55 | OC1(C(F)(F)F)CN(c2ncc(-c3cccc(Nc4nccc(C(F)(F)F)n4)c3)s2)C1 [Example 155] | 100 to 1000 nM
56 | O[C@@H]1CN(c2ncc(-c3cccc(Nc4nccc(C(F)(F)F)n4)c3)s2)C[C@@H]1O [Example 157] | ≤ 100 nM
57 | OC1CCN(c2ncc(-c3cccc(Nc4nccc(C(F)(F)F)n4)c3)s2)C1 (centres unmarked) [Example 158] | ≤ 100 nM
58 | OC1(c2ccccc2)CCN(c2ncc(-c3cccc(Nc4nccc(C(F)(F)F)n4)c3)s2)C1 (centres unmarked) [Example 159] | 100 to 1000 nM
59 | OCCC1(c2ccc(Cl)cc2)CCN(c2ncc(-c3cccc(Nc4nccc(C(F)(F)F)n4)c3)s2)C1 (centres unmarked) [Example 160] | 1000 to 10000 nM
60 | FC(F)(F)c1ccnc(Nc2cccc(-c3cnc(N4CCCC4c4ccccc4)s3)c2)n1 (centres unmarked) [Example 161] | 100 to 1000 nM
61 | NC1CCN(c2ncc(-c3cccc(Nc4nccc(C(F)(F)F)n4)c3)s2)C1 (centres unmarked) [Example 162] | ≤ 100 nM
62 | N[C@H]1CCN(c2ncc(-c3cccc(Nc4nccc(C(F)(F)F)n4)c3)s2)C1 [Example 163] | ≤ 100 nM
63 | Cc1cc(Nc2nccc(C(F)(F)F)n2)cc(-c2cnc(N3CC4CNC(CO)C4C3)s2)c1 (centres unmarked) [Example 165] | ≤ 100 nM
64 | O=C1CN(c2ncc(-c3cccc(Nc4nccc(C(F)(F)F)n4)c3)s2)CCCN1 [Example 166] | ≤ 100 nM
65 | FC(F)(F)c1ccnc(Nc2cccc(-c3cnc(N4CCCNCC4)s3)c2)n1 [Example 167] | ≤ 100 nM
66 | O=C1CCN(c2ncc(-c3cccc(Nc4nccc(C(F)(F)F)n4)c3)s2)CCN1 [Example 168] | ≤ 100 nM
67 | CC(=O)N1CCCN(c2ncc(-c3cccc(Nc4nccc(C(F)(F)F)n4)c3)s2)CC1 [Example 169] | ≤ 100 nM
68 | OCC1C2CN(c3ncc(-c4cccc(Nc5nccc(C(F)(F)F)n5)c4)s3)CC12 (centres unmarked) [Example 171] | ≤ 100 nM
69 | Cc1cc(Nc2nccc(C(F)(F)F)n2)cc(-c2cnc(N3CCN4CCCC4C3)s2)c1 (centres unmarked) [Example 172] | ≤ 100 nM
70 | Cc1cc(Nc2nccc(C(F)(F)F)n2)cc(-c2cnc(N3CCn4ccnc4C3)s2)c1 [Example 173] | ≤ 100 nM
71 | Cc1cc(Nc2nccc(C(F)(F)F)n2)cc(-c2cnc(N3CCn4cncc4C3)s2)c1 [Example 174] | ≤ 100 nM
